This experiment deals with A549 cells. Put plainly: CDDP in vitro anticancer activity assay (MTT). Format: cell-based, human. The protocol:
A549 cells were placed in a 96-well culture plat at a density of 5×10^4 cells per well in 0.1 ml of growth medium and cultured for 24 hours. […] The percentage of cell viability is illustrated as the ratio of the absorbance of treated cells relative to the absorbance of non-treated cells.

Read-outs that look alike come from different tables or passages of the source.

The IC50 is the point on the concentration scale where inhibition reaches its midpoint.

Turning to `[NH2][Pt]([NH2])([Cl])[Cl]` [CDDP, Cisplatin], the IC50 is 13.6 µM (48 hours, read-out: IC50 Value, 48 hours) and 5.2 µM (72 hours, read-out: IC50 Value, 72 hours).

The values above are taken from US20100209519A1, “PHARMACEUTICAL COMPOSITION FOR INHALATION DELIVERY AND FABRICATION METHOD THEREOF” (NATIONAL TAIWAN UNIVERSITY, priority 2009, published 2010).
